In article PMC11839852, “Preclinical comparison of (radio)lanthanides using mass spectrometry and nuclear imaging techniques: biodistribution of lanthanide-based tumor-targeting agents and lanthanides in ionic form” (European Journal of Nuclear Medicine and Molecular Imaging, 2024):
Marks after values point to notes of the source that are not given here.

What was measured:
[1] = system: non-tumor-bearing immunocompetent FVB mice; assay: Dual-isotope SPECT/CT imaging of [177Lu]LuCl3 and [161Tb]TbCl3; type: in vivo; settings: radiolanthanides in chloride form
Description: Dual-isotope SPECT studies with mice were performed as previously reported. Tumor-bearing nude mice (n = 2‒3 for each type of radioconjugate) were injected with 20 MBq (1 nmol) of a mixture of ^177Lu- and ^161Tb-labeled tumor-targeting agents (each 10 MBq, 0.5 nmol) diluted in saline containing 0.05% BSA. Non-tumor-bearing immunocompetent FVB mice (n = 2) were injected with 20 MBq of a mixture of [^177Lu]LuCl3 (10 MBq, 13.8 pmol) and [^161Tb]TbCl3 (10 MBq, 14.3 pmol) diluted with saline containing 0.05% BSA with a final pH value of 4.5. Additional mice (n = 2) were injected with colloids of lutetium-177 and terbium-161 obtained by diluting the chloride salts with PBS of pH 7.4 (Supplementary Material). SPECT/CT images were acquired 1 h, 4 h and 24 h after injection of the activity solutions using a dedicated small-animal SPECT/CT scanner (NanoSPECT/CT, Mediso Medical Imaging Systems, Budapest, Hungary) and the Nucline software (version 1.02, Mediso Ltd., Budapest, Hungary). Counts stemming from the γ-lines of lutetium-177 (112.9 keV ± 10% and 208.4 ± 10%) and the γ-lines and x-rays of terbium-161 (47.7 keV ± 10% and 74.6 keV ± 10%) were simultaneously registered using the respective energy windows for each radionuclide. […]

[2] = system: non-tumor-bearing immunocompetent FVB mice; assay: Biodistribution of lanthanide chloride salts LnCl3 (multiplexed ICP-MS); type: in vivo; settings: for Tissue uptake: Blood / Tissue uptake: Bone / Tissue uptake: Brain / Tissue uptake: Heart / Tissue uptake: Intestines / Tissue uptake: Kidneys / Tissue uptake: Liver / Tissue uptake: Lung / Tissue uptake: Muscle / Tissue uptake: Pancreas / Tissue uptake: Salivary glands / Tissue uptake: Spleen / Tissue uptake: Stomach: non-tumor-bearing mice
KB tumor cells = assay: In vitro cell uptake of lanthanide chloride salts; type: cell-based, human; settings: 1 h incubation
Description: (§1) A mixture of equal molar amounts of the lanthanide chloride salts (100 nM stock solutions of ^natLuCl3, ^natTbCl3, ^natGdCl3, and ^natEuCl3, diluted in saline with an adjusted pH value to 3.5‒4.0) was prepared to obtain a final concentration of 10 pmol/mL (2.5 pmol/mL per lanthanide salt) and tested with AR42J, PC-3 PIP and KB tumor cells according to the same protocol as described for the Ln-labeled biomolecules (Supplementary Material). Analogous in vitro cell uptake studies were also performed with lanthanide metal complexes of diethylenetriaminepentaacetic acid (DTPA, Sigma Aldrich Chemie, Steinheim, Germany) to obtain a final concentration of 10 pmol/mL (2.5 pmol/mL per lanthanide complex) (Supplementary Material).
(§2) Cell uptake studies were performed in triplicate in 3‒6 independent experiments and the results presented as the average ± standard deviation (SD). Data were normalized to the values measured for the ^175Lu-labeled tumor targeting agent or [^175Lu]LuCl3, which were set as 100% and zero was defined as 0%. Statistical significance of the normalized data was assessed for the comparison of the values obtained for terbium, gadolinium and europium analogues with those obtained for the lutetium counterparts by applying one-way ANOVA with the Dunnett’s post-test using GraphPad Prism software (version 8). A p-value of < 0.05 was considered statistically significant.
(§3) Methods: The same experimental setting as described for Ln-labeled biomolecules was applied to perform uptake and internalization studies with the lanthanide salts (LnCl3; Ln = ^natLu, ^natTb, ^natGd and ^natEu). The applied solution was a mixture of the four lanthanide salts yielding a final concentration of 0.4 µM. Of these mixtures, 25 μL were added to the corresponding well with tumor cells. The cells were incubated for 1 h and 4 h, respectively, at 37 °C and 5% CO2. After incubation, the tumor cells were treated as described for the Ln-labeled biomolecules and processed for the measurement with ICP-MS.

PC-3 PIP tumor cells = assay: In vitro cell uptake of lanthanide chloride salts; type: cell-based, human
Description: as §1, §2, §3

AR42J tumor cells = assay: In vitro cell uptake of lanthanide chloride salts; type: cell-based, rat
Description: as §1, §2, §3

[3] = 24 h p.i., estimated ratios (organ <0.5% ID/g)
[4] = 96 h p.i., estimated ratios (organ <0.5% ID/g)

Structure (SMILES): [Cl][Lu]([Cl])[Cl] [[^177Lu]LuCl3]
- Bone uptake on SPECT images [1]: higher bone uptake

Structure (SMILES): [Cl][Tb]([Cl])[Cl] [[^159Tb]TbCl3]
- Organ ratios: Blood-to-bone ([2]; 1 h p.i.): 0.38 ± 0.08
- Organ ratios: Blood-to-liver ([2]; 1 h p.i.): 0.19 ± 0.05
- Organ ratios: Liver-to-bone ([2]; 1 h p.i.): 2.0 ± 0.3
- Tissue uptake: Blood ([2]; 1 h p.i.): 5.0 ± 0.9 % ID/g
- Tissue uptake: Bone ([2]; 1 h p.i.): 13 ± 2 % ID/g
- Tissue uptake: Brain ([2]; 1 h p.i.): 1.1 ± 0.8 % ID/g
- Tissue uptake: Heart ([2]; 1 h p.i.): 4.8 ± 2.2 % ID/g
- Tissue uptake: Intestines ([2]; 1 h p.i.): 2.6 ± 1.0 % ID/g
- Tissue uptake: Kidneys ([2]; 1 h p.i.): 8.7 ± 2.5 % ID/g
- Tissue uptake: Liver ([2]; 1 h p.i.): 27 ± 3 % ID/g
- Tissue uptake: Lung ([2]; 1 h p.i.): 4.8 ± 1.2 % ID/g
- Tissue uptake: Muscle ([2]; 1 h p.i.): 1.6 ± 0.9 % ID/g
- Tissue uptake: Pancreas ([2]; 1 h p.i.): 2.2 ± 1.0 % ID/g
- Tissue uptake: Salivary glands ([2]; 1 h p.i.): 2.4 ± 1.4 % ID/g
- Tissue uptake: Spleen ([2]; 1 h p.i.): 6.1 ± 1.4 % ID/g
- Tissue uptake: Stomach ([2]; 1 h p.i.): 6.0 ± 2.3 % ID/g
- Organ ratios: Liver-to-bone ([2]; 24 h p.i.): 1.6 ± 0.5
- Organ ratios: Blood-to-bone [2, 3]: <0.04^*
- Organ ratios: Blood-to-liver [2, 3]: <0.02^*
- Tissue uptake: Blood ([2]; 24 h p.i.): <0.5 % ID/g
- Tissue uptake: Bone ([2]; 24 h p.i.): 15 ± 2 % ID/g
- Tissue uptake: Brain ([2]; 24 h p.i.): <0.5 % ID/g
- Tissue uptake: Heart ([2]; 24 h p.i.): 0.76 ± 0.10 % ID/g
- Tissue uptake: Intestines ([2]; 24 h p.i.): 0.54 ± 0.05 % ID/g
- Tissue uptake: Kidneys ([2]; 24 h p.i.): 3.8 ± 0.8 % ID/g
- Tissue uptake: Lung ([2]; 24 h p.i.): 1.0 ± 0.1 % ID/g
- Tissue uptake: Muscle ([2]; 24 h p.i.): <0.5 % ID/g
- Tissue uptake: Pancreas ([2]; 24 h p.i.): <0.5 % ID/g
- Tissue uptake: Salivary glands ([2]; 24 h p.i.): <0.5 % ID/g
- Tissue uptake: Spleen ([2]; 24 h p.i.): 5.0 ± 1.1 % ID/g
- Tissue uptake: Stomach ([2]; 24 h p.i.): 1.8 ± 0.4 % ID/g
- Tissue uptake: Liver ([2]; 24 h p.i., listed as natTb): ~ 22 % ID/g
- Tissue uptake: Liver ([2]; 24 h p.i., listed as terbium): 22 ± 5 % ID/g
- Organ ratios: Liver-to-bone ([2]; 96 h p.i.): 0.59 ± 0.18
- Organ ratios: Blood-to-bone [2, 4]: <0.03^*
- Organ ratios: Blood-to-liver [2, 4]: <0.05^*
- Tissue uptake: Blood ([2]; 96 h p.i.): <0.5 % ID/g
- Tissue uptake: Bone ([2]; 96 h p.i.): 19 ± 4 % ID/g
- Tissue uptake: Brain ([2]; 96 h p.i.): <0.5 % ID/g
- Tissue uptake: Heart ([2]; 96 h p.i.): 0.73 ± 0.05 % ID/g
- Tissue uptake: Intestines ([2]; 96 h p.i.): 0.52 ± 0.01 % ID/g
- Tissue uptake: Kidneys ([2]; 96 h p.i.): 2.0 ± 0.1 % ID/g
- Tissue uptake: Liver ([2]; 96 h p.i.): 11 ± 1 % ID/g
- Tissue uptake: Lung ([2]; 96 h p.i.): 0.91 ± 0.10 % ID/g
- Tissue uptake: Muscle ([2]; 96 h p.i.): <0.5 % ID/g
- Tissue uptake: Pancreas ([2]; 96 h p.i.): <0.5 % ID/g
- Tissue uptake: Salivary glands ([2]; 96 h p.i.): <0.5 % ID/g
- Tissue uptake: Spleen ([2]; 96 h p.i.): 3.1 ± 0.2 % ID/g
- Tissue uptake: Stomach ([2]; 96 h p.i.): 2.2 ± 0.4 % ID/g
- Detected amount compared with lutetium (KB tumor cells): significantly lower
- Lanthanide uptake compared with [175Lu]LuCl3 (PC-3 PIP tumor cells): No significant difference
- Lanthanide uptake compared with [175Lu]LuCl3 (AR42J tumor cells): No significant difference
